According to publication PMC13382108 (Frontiers in Pharmacology, 2026):

Test: In vivo pharmacokinetic study in rats (plasma, HPLC)
Details: SD rats, intragastric, FLU 40 mg/kg alone, as TF-1 (+48 mg/kg TDS) or TF-2 (+96 mg/kg TDS)
Protocol: A total of 25 healthy male SD rats were used. After adaptive feeding, rats were randomly divided into five groups (n = 5). […] Blood samples were placed in heparin-pretreated centrifuge tubes. Whole blood was centrifuged at 6,000 rpm for 3 min to separate plasma, which was stored at −20 °C or −80 °C for subsequent analysis. […] The mean plasma concentration-time curves were plotted. The non-compartmental model in DAS 2.1.1 software was used to calculate major pharmacokinetic parameters. The pharmacokinetic interactions after combined medication were evaluated by comparing parameters between monotherapy groups and TF combination groups.

For CNCCC(Oc1ccc(C(F)(F)F)cc1)c1ccccc1 (stereo not shown) [FLU, Fluoxetine], the “t1/2z of FLU” value was 6.563 h.
